Data: paper PMC3340383, “Synthesis and Evaluation of a Series of 2-Substituted-5-Thiopropylpiperazine (Piperidine)-1,3,4-Oxadiazoles Derivatives as Atypical Antipsychotics” (PLoS ONE, 2012)

Test system: apomorphine-induced climbing behavior in mice
Assay: Apomorphine-induced climbing
Assay type: in vivo
Conditions: Mus musculus, po, read-out: Apomorphine-induced climbing ED50 (A)
Protocol: . […] . Animals were then challenged at 30 minutes post-injection with 1.0 mg/kg of the apomorphine in 0.9% NaCl+0.1% ascorbic acid, placed in cylindrical wire cages (12 cm in diameter, 14 cm in height), and observed for climbing behavior at 10, 20 and 30 min post dose. The climbing behaviour was scored as follows: 3–4 paws on the cage floor = 0 score; 2 and 3 paws on the cage = 1 score; 4 paws on the cage = 2 score.

How did the ED50 turn out when `Cc1nc2n(c(=O)c1CCN1CCC(c3noc4cc(F)ccc34)CC1)CCCC2` [risperidone] was run?
Its ED50 is 0.02 mg/kg.
